Converted amounts (≈) assume the structure as drawn.

The subject of assay [1] is KB VCR R. Briefly: Cytotoxicity in KB VCR R cancer cell line. The class given is functional, cell-based. The following applies: Homo sapiens.
The test system of assay [2] is KB. Briefly: Cytotoxicity in KB VP-16 R cancer cell line. The class given is functional, cell-based. The following applies: Homo sapiens.
Assay [3] deals with KB. Briefly: Cytotoxicity in KB cancer cell line. The following applies: Homo sapiens. The class given is functional, cell-based.
Assay [4] relates to SW480. Put plainly: Cytotoxicity in SW480 cancer cell line. The class given is functional, cell-based. The following applies: Homo sapiens.
A short description of assay [5]: Compound was tested for the production of cellular protein-linked DNA breaks when administered at a dose of 25 ug/mL. The class given is functional.
Assay [6] relates to HepG2. Put plainly: Cytotoxicity in HepG2-T14 cancer cell line. It counts as functional, cell-based. The following applies: Homo sapiens.
Assay [7] has as its target T1, DNA topoisomerase 1 (Homo sapiens) (UniProt P11387).
T1 sequence (whole entry): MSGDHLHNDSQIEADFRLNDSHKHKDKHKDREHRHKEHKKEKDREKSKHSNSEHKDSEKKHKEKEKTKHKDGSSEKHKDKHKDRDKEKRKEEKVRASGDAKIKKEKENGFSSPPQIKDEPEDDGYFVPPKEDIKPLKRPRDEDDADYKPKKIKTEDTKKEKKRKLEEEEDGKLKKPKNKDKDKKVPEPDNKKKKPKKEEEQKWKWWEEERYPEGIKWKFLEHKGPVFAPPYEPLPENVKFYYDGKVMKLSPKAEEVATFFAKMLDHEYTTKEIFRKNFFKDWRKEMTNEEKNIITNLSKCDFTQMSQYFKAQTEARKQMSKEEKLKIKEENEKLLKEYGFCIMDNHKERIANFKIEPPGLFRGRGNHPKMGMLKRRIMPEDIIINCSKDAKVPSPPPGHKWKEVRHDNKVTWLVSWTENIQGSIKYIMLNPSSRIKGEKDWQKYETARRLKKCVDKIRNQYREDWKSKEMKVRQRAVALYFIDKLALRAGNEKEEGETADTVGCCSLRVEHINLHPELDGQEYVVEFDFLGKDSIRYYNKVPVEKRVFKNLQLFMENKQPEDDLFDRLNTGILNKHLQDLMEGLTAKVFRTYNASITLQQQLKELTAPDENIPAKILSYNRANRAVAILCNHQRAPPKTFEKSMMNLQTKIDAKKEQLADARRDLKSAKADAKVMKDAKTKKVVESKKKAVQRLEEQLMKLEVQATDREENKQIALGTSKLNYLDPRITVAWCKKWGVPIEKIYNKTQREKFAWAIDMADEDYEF
Briefly: Compound was tested for the inhibition of Topoisomerase I when administered at a dose of 25 ug/mL.

Assay [8] deals with MCF7. Briefly: Cytotoxicity in MCF-7 cancer cell line. The class given is functional, cell-based. The following applies: Homo sapiens.

For `CC[C@@]1(O)C(=O)OCc2c1cc1n(c2=O)Cc2c-1nc1ccccc1c2/C=N/NC(=O)C(C)N.Cl` (stereo partly specified), the IC50 amounted to 3 µg/mL in assay [1]; 5 µg/mL in assay [2]; 0.1 µg/mL in assay [3]; 0.6 µg/mL in assay [4]; 2.5 µg/mL in assay [6]; 1 µg/mL in assay [8]. In assay [5], this compound had an Activity of 93.7%. The Topoisomerase I inhibition relative to reference (%) in assay [7] was found to be 98%.
Take `CC[C@@]1(O)C(=O)OCc2c1cc1n(c2=O)Cc2c-1nc1ccccc1c2/C=N/NC(=O)C(N)CO.Cl` (stereo partly specified): the IC50 was 3 µg/mL in assay [1]; 5 µg/mL in assay [2]; 0.12 µg/mL in assay [3]; 1 µg/mL in assay [4]; 3.5 µg/mL in assay [6]; 1 µg/mL in assay [8]. Besides, the Activity in assay [5] is listed as 79.8%. Moreover, the Topoisomerase I inhibition relative to reference (%) in assay [7] was determined as 145%.
As to `CC[C@@]1(O)C(=O)OCc2c1cc1n(c2=O)Cc2c-1nc1ccccc1c2/C=N/NC(=O)C1CCCN1.Cl` (stereo partly specified), the IC50 in assay [1] turned out to be 5 µg/mL; in assay [2] it was 0.6 µg/mL; in assay [3], 0.04 µg/mL; in assay [4] it was 0.7 µg/mL; in assay [6], 1.25 µg/mL; in assay [8], 0.8 µg/mL. The same compound had an Activity in assay [5] of 154.6%. In addition, in assay [7], the Topoisomerase I inhibition relative to reference (%) came out at 100%.
Consider `CC[C@@]1(O)C(=O)OCc2c1cc1n(c2=O)Cc2c-1nc1ccccc1c2/C=N/NC(=O)C(N)CCSC.Cl` (stereo partly specified), for which the IC50 in assay [1] was found to be 0.2 µg/mL; in assay [2], 0.5 µg/mL; in assay [3], 0.1 µg/mL; in assay [4] it was 0.8 µg/mL; in assay [6], 2 µg/mL; in assay [8], 1 µg/mL. In assay [5], this compound returned an Activity of 111%.
Take `CC[C@@]1(O)C(=O)OCc2c1cc1n(c2=O)Cc2c-1nc1ccccc1c2/C=N/NC(=O)C(N)Cc1ccc(O)cc1.Cl` (stereo partly specified): the half-inhibitory concentration (IC50) in assay [1] was determined as 1 µg/mL; in assay [2], 5 µg/mL; in assay [3], 0.1 µg/mL; in assay [4] it was 0.4 µg/mL; in assay [6] it was 1 µg/mL; in assay [8], 5 µg/mL. Further, the Activity in assay [5] is 181%.
`CC[C@@]1(O)C(=O)OCc2c1cc1n(c2=O)Cc2cc3ccccc3nc2-1` [CAMPTOTHECIN]: the IC50 was determined as 0.03 µg/mL (≈ 0.0861 µM) in assay [1]; 0.04 µg/mL (≈ 0.115 µM) in assay [2]; 0.01 µg/mL (≈ 0.0287 µM) in assay [3]; 0.01 µg/mL (≈ 0.0287 µM) in assay [4]; 0.09 µg/mL (≈ 0.258 µM) in assay [6]; 0.02 µg/mL (≈ 0.0574 µM) in assay [8]. This compound yielded an Activity in assay [5] of 100%.
With `CC[C@@]1(O)C(=O)OCc2c1cc1n(c2=O)Cc2c-1nc1ccccc1c2/C=N/NC(=O)C(N)CC(C)C.Cl` (stereo partly specified), the 50% inhibitory concentration (IC50) turned out to be 0.4 µg/mL in assay [1]; 1 µg/mL in assay [2]; 0.1 µg/mL in assay [3]; 0.04 µg/mL in assay [4]; 0.4 µg/mL in assay [6]; 0.15 µg/mL in assay [8]. This compound returned an Activity in assay [5] of 111.7%. In addition, the Topoisomerase I inhibition relative to reference (%) in assay [7] was 136%.
In the case of `CC[C@@]1(O)C(=O)OCc2c1cc1n(c2=O)Cc2c-1nc1ccccc1c2/C=N/NC(=O)CN.Cl`, the IC50 in assay [1] was determined as 1 µg/mL; in assay [2], 3 µg/mL; in assay [3] it was 0.1 µg/mL; in assay [4], 0.1 µg/mL; in assay [6], 0.6 µg/mL; in assay [8], 0.4 µg/mL. Further, the Activity in assay [5] came to 110.3%. Besides, the Topoisomerase I inhibition relative to reference (%) in assay [7] was 116%.

The values are drawn from ChEMBL document CHEMBL1127248, “Novel water-solutle (7-(acylhydrazono)-formyl camptothecins as potent inhibitors of DNA topoisomerase I” (Bioorg Med Chem Lett, 1994).
